# Laboratory results from patent publication US8012975B2, “Antitumoral analogs of ET-743” (Pharma Mar, S.A., priority 2000, dated 2011).
# What was measured:
# FADU = test: Cytotoxic activity (M) panel, Pharnynx FADU; settings: Homo sapiens, read-out: CYTOTOXIC ACTIVITY (M) FADU
# Hs746t = test: Cytotoxic activity (M) panel, Gastric Hs746t; settings: Homo sapiens, read-out: CYTOTOXIC ACTIVITY (M) Hs746t
# OSA-FH = test: Cytotoxic activity (M) panel, Osteosarcoma OSA-FH; settings: read-out: CYTOTOXIC ACTIVITY (M) OSA-FH
# 786-O = test: Cytotoxic activity (M) panel, Renal 786-O; settings: Homo sapiens, 786-0, read-out: CYTOTOXIC ACTIVITY (M) 786-O
# SK-HEP-1 = test: Cytotoxic activity (M) panel, Liver SK-HEP-1; settings: Homo sapiens, SK-HEP1, read-out: CYTOTOXIC ACTIVITY (M) SK-HEP-1
# DU-145 = test: Cytotoxic activity (M) panel, Prostate DU-145; settings: Homo sapiens, DU-145, read-out: CYTOTOXIC ACTIVITY (M) DU-145
# HT-29 = test: Cytotoxic activity (M) panel, Colon HT-29; settings: Homo sapiens, HT-29, read-out: CYTOTOXIC ACTIVITY (M) HT-29
# SW-694 = test: Cytotoxic activity (M) panel, Fibrosarcoma SW-694; settings: read-out: CYTOTOXIC ACTIVITY (M) SW-694
# PANC-1 = test: Cytotoxic activity (M) panel, Pancreas PANC-1; settings: Homo sapiens, PANC-1, read-out: CYTOTOXIC ACTIVITY (M) PANC-1
# CHSA = test: Cytotoxic activity (M) panel, Chondrosarcoma CHSA; settings: read-out: CYTOTOXIC ACTIVITY (M) CHSA
# 5637 = test: Cytotoxic activity (M) panel, Bladder 5637; settings: read-out: CYTOTOXIC ACTIVITY (M) 5637
# LNCAP = test: Cytotoxic activity (M) panel, Prostate LNCAP; settings: Homo sapiens, read-out: CYTOTOXIC ACTIVITY (M) LNCAP
# MEL-28 = test: Cytotoxic activity (M) panel, Melanoma Mel-28; settings: Homo sapiens, SK-MEL-28, read-out: CYTOTOXIC ACTIVITY (M) Mel-28
# SK-OV-3 = test: Cytotoxic activity (M) panel, Ovary SK-OV-3; settings: Homo sapiens, SK-OV-3, read-out: CYTOTOXIC ACTIVITY (M) SK-OV-3
smiles,measurement,setting,value
COc1c(C)cc2c(c1O)[C@@H]1C3Cc4c(OC(C)=O)c(C)c5c(c4[C@H](COC(=O)/C=C/c4ccccc4)N3[C@@H](O)[C@H](C2)N1C)OCO5 (stereo partly drawn) [drawing 234],CYTOTOXIC ACTIVITY (M) A549,A549,1.56 to 05 M
same,IC50,FADU,2.46e-08 M
same,IC50,Hs746t,1.24e-09 M
same,IC50,OSA-FH,5.26e-07 M
same,IC50,786-O,5.26e-12 M
same,IC50,SK-HEP-1,1.94e-09 M
same,IC50,MX-1,0.000725 nM
same,IC50,DU-145,1.56e-06 M
same,IC50,HT-29,2.96e-07 M
same,IC50,SW-694,6.69e-06 M
same,IC50,PANC-1,9.47e-09 M
same,IC50,CHSA,4.49e-08 M
same,IC50,5637,1.71e-08 M
same,IC50,LNCAP,6.83e-08 M
same,IC50,MEL-28,5.89e-08 M
same,IC50,Y-79,0.0778 pM
same,IC50,NCI-H187,0.0778 pM
same,IC50,SK-OV-3,7.78e-08 M
